The molecules below were run on HIV-IIIb (assay: Antiviral assay in MT4 cells). Settings: Human immunodeficiency virus 1, MT4, 120 h; MT-4 cells mixed with HIV-IIIb at m.o.i. 0.003; 5 days at 37° C.; CellTiter-Glo luminescence; 50% decrease in signal, a measure of HIV-1 replication.
Assay type: cell-based
Experimental: Antiviral Assay in MT4 Cells For the antiviral assay, 40 μL of a concentration required to achieve a final effective 1× test concentration of 3-fold serially diluted compound in culture medium with 10% FBS was added to each well of a 384-well plate (10 concentrations) in quadruplicate. MT-4 cells were next mixed with HIV-IIIb at an m.o.i of 0.003 for 1 hour, after which time 35 μL of virus/cell mixture (2000 cells) was immediately added to each well containing 40 μL of diluted compound. The plates were then incubated at 37° C. for 5 days. After 5 days of incubation, 25 μl of 2× concentrated CellTiter-Glom Reagent (catalog #G7571, Promega Biosciences, Inc., Madison, WI) was added to each well containing MT-4 cells. Cell lysis was carried out by incubating at room temperature for 10 min and then chemiluminescence was read.

| EC50 | SMILES |
| --- | --- |
| 0.466 µM | NC(=O)c1cc(-c2cc3sc(N4CCn5cnnc5C4)nc3nc2[C@H](Cc2cc(F)cc(F)c2)NC(=O)Cn2nc(C(F)(F)F)c3c2C(F)(F)[C@@H]2C[C@H]32)ccc1F [Compound 31, 5-(5-((S)-1-(2-((3bS,4aR)-5,5-difluoro-3-(trifluoromethyl)-3b,4,4a,5-tetrahydro-1H-cyclopropa[3,4]cyclopenta[1,2-c]pyrazol-1-yl)acetamido)-2-(3,5-difluorophenyl)ethyl)-2-(5,6-dihydro-[1,2,4]triazolo[4,3-a]pyrazin-7(8H)-yl)thiazolo[4,5-b]pyridin-6-yl)-2-fluorobenzamide] |
| 0.0606 µM | CC1(O)CN(c2nc3nc([C@H](Cc4cc(F)cc(F)c4)NC(=O)Cn4nc(C(F)(F)F)c5c4C(F)(F)[C@@H]4C[C@H]54)c(-c4ccc(F)c(C(N)=O)c4)cc3s2)C1 [Compound 32, 5-(5-((S)-1-(2-((3bS,4aR)-5,5-difluoro-3-(trifluoromethyl)-3b,4,4a,5-tetrahydro-1H-cyclopropa[3,4]cyclopenta[1,2-c]pyrazol-1-yl)acetamido)-2-(3,5-difluorophenyl)ethyl)-2-(3-hydroxy-3-methylazetidin-1-yl)thiazolo[4,5-b]pyridin-6-yl)-2-fluorobenzamide] |
| 0.0883 µM | NC(=O)c1cc(-c2cc3sc(N4CCNC(=O)C4)nc3nc2[C@H](Cc2cc(F)cc(F)c2)NC(=O)Cn2nc(C(F)(F)F)c3c2C(F)(F)[C@@H]2C[C@H]32)ccc1F [Compound 33, 5-(5-((S)-1-(2-((3bS,4aR)-5,5-difluoro-3-(trifluoromethyl)-3b,4,4a,5-tetrahydro-1H-cyclopropa[3,4]cyclopenta[1,2-c]pyrazol-1-yl)acetamido)-2-(3,5-difluorophenyl)ethyl)-2-(3-oxopiperazin-1-yl)thiazolo[4,5-b]pyridin-6-yl)-2-fluorobenzamide] |
| 0.0978 µM | O=C(Cn1nc(C(F)(F)F)c2c1C(F)(F)[C@@H]1C[C@H]21)N[C@@H](Cc1cc(F)cc(F)c1)c1nc2nc(N3CCN(c4ccc(-c5ncc[nH]5)cc4)CC3)sc2cc1-c1ccc2c(c1)C(=O)NC2 [Compound 34, N—((S)-1-(2-(4-(4-(1H-imidazol-2-yl)phenyl)piperazin-1-yl)-6-(3-oxoisoindolin-5-yl)thiazolo[4,5-b]pyridin-5-yl)-2-(3,5-difluorophenyl)ethyl)-2-((3bS,4aR)-5,5-difluoro-3-(trifluoromethyl)-3b,4,4a,5-tetrahydro-1H-cyclopropa[3,4]cyclopenta[1,2-c]pyrazol-1-yl)acetamide] |
| 0.0319 µM | O=C(Cn1nc(C(F)F)c2c1C1CC1CC2)N[C@@H](Cc1cc(F)cc(F)c1)c1nc2nc(N3CCN(c4ccc(-c5ncc[nH]5)cc4)CC3)sc2cc1-c1ccc2c(c1)C(=O)NC2 (stereo partly drawn) [Compound 35, N—((S)-1-(2-(4-(4-(1H-imidazol-2-yl)phenyl)piperazin-1-yl)-6-(3-oxoisoindolin-5-yl)thiazolo[4,5-b]pyridin-5-yl)-2-(3,5-difluorophenyl)ethyl)-2-(3-(difluoromethyl)-5,5a,6,6a-tetrahydrocyclopropa[g]indazol-1(4H)-yl)acetamide] |
| 0.0287 µM | O=C(Cn1nc(C(F)(F)F)c2c1C(F)(F)[C@@H]1C[C@H]21)N[C@@H](Cc1cc(F)cc(F)c1)c1nc2nc(N3CCN(c4ccncc4)CC3)sc2cc1-c1ccc2c(c1)C(=O)NC2 [Compound 36, 2-((3bS,4aR)-5,5-difluoro-3-(trifluoromethyl)-3b,4,4a,5-tetrahydro-1H-cyclopropa[3,4]cyclopenta[1,2-c]pyrazol-1-yl)-N—((S)-2-(3,5-difluorophenyl)-1-(6-(3-oxoisoindolin-5-yl)-2-(4-(pyridin-4-yl)piperazin-1-yl)thiazolo[4,5-b]pyridin-5-yl)ethyl)acetamide] |
| 1.07 µM | O=C(Cn1nc(C(F)(F)F)c2c1C(F)(F)[C@@H]1C[C@H]21)N[C@H](Cc1cc(F)cc(F)c1)c1nc2nc(N3CCN(c4ccncc4)CC3)sc2cc1-c1ccc2c(c1)C(=O)NC2 [Compound 37, 2-((3bS,4aR)-5,5-difluoro-3-(trifluoromethyl)-3b,4,4a,5-tetrahydro-1H-cyclopropa[3,4]cyclopenta[1,2-c]pyrazol-1-yl)-N—((R)-2-(3,5-difluorophenyl)-1-(6-(3-oxoisoindolin-5-yl)-2-(4-(pyridin-4-yl)piperazin-1-yl)thiazolo[4,5-b]pyridin-5-yl)ethyl)acetamide] |
| 0.0101 µM | O=C(Cn1nc(C(F)(F)F)c2c1C(F)(F)[C@@H]1C[C@H]21)N[C@@H](Cc1cc(F)cc(F)c1)c1nc2nc(N3CCN(C4COC4)CC3)sc2cc1-c1ccc2c(c1)C(=O)NC2 [Compound 38, 2-((3bS,4aR)-5,5-difluoro-3-(trifluoromethyl)-3b,4,4a,5-tetrahydro-1H-cyclopropa[3,4]cyclopenta[1,2-c]pyrazol-1-yl)-N—((S)-2-(3,5-difluorophenyl)-1-(2-(4-(oxetan-3-yl)piperazin-1-yl)-6-(3-oxoisoindolin-5-yl)thiazolo[4,5-b]pyridin-5-yl)ethyl)acetamide] |
| 0.0146 µM | CC1(O)CN(c2nc3nc([C@H](Cc4cc(F)cc(F)c4)NC(=O)Cn4nc(C(F)(F)F)c5c4C(F)(F)[C@@H]4C[C@H]54)c(-c4cccc5c4CNC5=O)cc3s2)C1 [Compound 39, 2-((3bS,4aR)-5,5-difluoro-3-(trifluoromethyl)-3b,4,4a,5-tetrahydro-1H-cyclopropa[3,4]cyclopenta[1,2-c]pyrazol-1-yl)-N—((S)-2-(3,5-difluorophenyl)-1-(2-(3-hydroxy-3-methylazetidin-1-yl)-6-(1-oxoisoindolin-4-yl)thiazolo[4,5-b]pyridin-5-yl)ethyl)acetamide] |
| 0.0281 µM | O=C(Cn1nc(C(F)(F)F)c2c1C(F)(F)[C@@H]1C[C@H]21)N[C@@H](Cc1cc(F)cc(F)c1)c1nc2nc(N3CCN(c4ccncc4)CC3)sc2cc1-c1cccc2c1CNC2=O [Compound 40, 2-((3bS,4aR)-5,5-difluoro-3-(trifluoromethyl)-3b,4,4a,5-tetrahydro-1H-cyclopropa[3,4]cyclopenta[1,2-c]pyrazol-1-yl)-N—((S)-2-(3,5-difluorophenyl)-1-(6-(1-oxoisoindolin-4-yl)-2-(4-(pyridin-4-yl)piperazin-1-yl)thiazolo[4,5-b]pyridin-5-yl)ethyl)acetamide] |
| 0.0981 µM | NC(=O)c1cc(-c2cc3sc(N4CCN(c5ccc(-c6ncc[nH]6)cc5)CC4)nc3nc2[C@H](Cc2cc(F)cc(F)c2)NC(=O)Cn2nc(C(F)F)c3c2C2CC2CC3)ccc1F (stereo partly drawn) [Compound 41, 5-(2-(4-(4-(1H-imidazol-2-yl)phenyl)piperazin-1-yl)-5-((1S)-1-(2-(3-(difluoromethyl)-5,5a,6,6a-tetrahydrocyclopropa[g]indazol-1(4H)-yl)acetamido)-2-(3,5-difluorophenyl)ethyl)thiazolo[4,5-b]pyridin-6-yl)-2-fluorobenzamide] |
| 0.0872 µM | O=C(Cn1nc(C(F)(F)F)c2c1C(F)(F)[C@@H]1C[C@H]21)N[C@@H](Cc1cc(F)cc(F)c1)c1nc2nc(N3CCN(c4ccncc4)CC3)sc2cc1-c1ccc2c(c1)C(=O)NC21CC1 [Compound 42, 2-((3bS,4aR)-5,5-difluoro-3-(trifluoromethyl)-3b,4,4a,5-tetrahydro-1H-cyclopropa[3,4]cyclopenta[1,2-c]pyrazol-1-yl)-N—((S)-2-(3,5-difluorophenyl)-1-(6-(3′-oxospiro[cyclopropane-1,1′-isoindolin]-5′-yl)-2-(4-(pyridin-4-yl)piperazin-1-yl)thiazolo[4,5-b]pyridin-5-yl)ethyl)acetamide] |

From US12077537B2 (Gilead Sciences, Inc., priority 2020, dated 2024)
